Patent US20070275953A1 (priority 2003, published 2007)
Like-named read-outs stand apart in the source and are kept apart here.

Experiments:
Type in all cases: cell-based
[1] = tested on: HIV-1 mutant Ile108RT in TZM-bl cells; experiment: Anti-HIV assay on TZM-bl cells, Ile108RT mutant; settings: read-out: EC50 Ile108RT TZM-bl
Excerpt: (§1) In order to introduce mutation(s) at the level of the pol gene coding for the RT in the pNL4-3 plasmid containing the complete viral genome (Adachi et al., 1986. J. Virol., Vol. 59 p 284-291) we used the “Quick change mutagenesis kit” (Stratagene). The following mutations were separately introduced in pNL4-3: L100I, K103N, V108I, Y181C, Y188C, and the double mutations K103N/V108I. These mutations were chosen because of the resistance that they confer to existing NNRTI. The production procedure of the mutant viral stocks is identical to the one described above.
Anti-HIV activity and cytotoxicity of the compounds were tested on the TZM-b1 cell line. The TZM-b1 cell line (Wei et al. 2002. Antimicrob. Agents Chemother. Vol. 46, p 1896-1905) was received from the NIH AIDS Research and Reference Reagent Program. These cells were cultured in complete DMEM medium supplemented with 10% fetal bovine serum (FBS), and 1% Penicillin/Streptomycin. Exponentially growing cells were trypsinized, centrifuged and split twice weekly at 5 10^4 cells/ml.
The anti-HIV assay with TZM-b1 cells is essentially the same as described above with P4 cells. The main difference between the two cell lines is that the TZM-b1 cells express at their surface both the CD4 and CCR5 proteins, acting as receptor and co-receptor for HIV entry, respectively (Wei et al. 2002. Antimicrob. Agents Chemother. Vol. 46, p 1896-1905). This feature makes the cells very sensitive to infection by the virus. The TMZ-b1 cells were infected with equal amount of cell-free virus, corresponding to 10 ng of HIV p24 antigen. This amount is ten times lower than the amount used to infect the P4 cells.

[2] = tested on: HIV-1 mutant Asn103/Ile108RT in MT4 cells; experiment: Anti-HIV assay on MT4 cells, Asn103/Ile108RT double mutant
Excerpt: as §1
(§2) Anti-HIV activity of the compounds was tested on MT-4 cell line. The MT-4 cell line (Larder et al. 1989. Sciences, Vol. 243 p 1731) was received from the NIH AIDS Research and Reference Reagent Program. These cells were cultured in RPMI medium supplemented with 10% fetal bovine serum (FBS), and 1% Penicillin/Streptomycin. The cultures were split regularly to keep cells densities between 0.3 to 1.2 10^6 cells/ml.
(§3) The MT-4 cells rapidly die upon infection by HIV. In this system there is an inverse correlation between cells survival and the amount of viral replication.
(§4) Briefly, in the anti-HIV assay exponentially growing MT-4 cells were infected with HIV-1. 100 μl of infected MT-4 cells were seeded in 96-well plate at a concentration of 0.4 10^5 cells/ml, and 100 μl of the different drugs dilutions were added to the cells. After 4 days of incubation at 37° C., 5% CO2, cells survival was measured using MTS (3-(4-5-dimethylthiazol-2-yl)-5-(−(3-carboxymethoxyphenyl)-2-(4-sulfophenyl)-2H-tetrazolium) assays. This compound is reduced by viable cells in a colored soluble formazan salt.
(§5) The absorbance was measured on a Benchmark™ Microplate Reader (Biorad) (λ=490 nm) and compared with 12 cell control replicates (nor virus nor drug added) and 12 virus control wells (no drug added). Each assay was performed a minimum of three times. The 50% effective concentration (EC50) was calculated from each dose response curve using the CurveExpert 1.3 software.

[3] = tested on: HIV-1 with WT (wild type) RT in MT4 cells; experiment: Anti-HIV assay on MT4 cell line, WT RT
Protocol: Wurzburg Jurkat T cells (subclone JR) were transfected with 10 μg of the circularly permuted infectious molecular clone HIVNL4-3 (Adachi et al., 1986. J. Virol, 59 (2), p 284-291). Two days later, co-cultivation with SupT1 cells (a human T-cell lymphoma cell line) was initiated to facilitate rapid production of progeny virions. Production of virus was measured by using the Innotest HIV Antigen mAb p24 kit (Innogenetics). At the peak of production cultures were harvested and filtered. The virus stocks were stored at −80° C. until used.
as §2, §3, §4, §5

[4] = tested on: HIV-1 mutant Asn103/Ile108RT in P4 cells; experiment: Anti-HIV assay on P4 cells, Asn103/Ile108RT double mutant
Excerpt: as §1
Anti-HIV activity and cytotoxicity of the compounds were tested on a P4 cell line. The P4 cell line (Clavel & Charneau, 1994. J. Virol., Vol. 68 p 1179-1185) was provided by Dr. François Clavel (Unité de recherche antivirale de l'hôpital Xavier Bichat Paris: Inserm). The P4 cells were cultured in complete DMEM medium supplemented with 10% fetal bovine serum (FBS), 0.5% of Penicillin/Streptomycin and G418 at 0.5 mg/ml. Exponentially growing cells were trypsinized, centrifuged and split twice weekly at 5.10^4 cells/ml.
The P4 cells are HIV-infectible Hela-CD4 cells that carry the bacterial lacZ gene under the control of the HIV-1 long terminal repeat (LTR). In this cell line, transcription of the LacZ gene is driven by the HIV-1 LTR. As such, the cytoplasmic accumulation of β-galactosidase is strictly dependent on the presence of the HIV transactivator Tat produced during the intracellular viral replication (Clavel & Charneau, 1994. J. Virol., Vol. 68, p. 1179-1185). In other words, in this system, the expression level of the β-galactosidase gene is proportional to the viral replication.
Briefly, in the anti-HIV assay 100 Ål of P4 cells were plated in 96-well plate at a concentration of 0.4 10^5 cells/ml and incubated at 37° C., 5% CO2. After 48 h, the medium was removed and 100 Ål of the different drugs dilutions were added to the cells. Four hours after the addition of the drugs all cells were infected with equal amount of cell-free virus, corresponding to 100 ng of HIV p24 antigen. After 48 h of incubation at 37° C., 5% CO2, β-galactosidase activity was measured using chlorophenol red-β-D-galactopyranoside assays.
as §5, with “(λ=570” for “(λ=490”, “(no” for “(nor”, “or” for “nor”, “(Ec50)” for “(EC50)”, “software. As Nevirapine activity corresponds to its published values (10-100 nM), the data are consistent with other measures of viral replication.” for “software.”

[5] = Human immunodeficiency virus 1, TZM-bl
[6] = Human immunodeficiency virus 1, MT4, read-out: EC50 Asn103/Ile108RT MT4
[7] = Human immunodeficiency virus 1, read-out: EC50 Asn103/Ile108RT F4
[8] = MT4, double mutant Asn103/Ile108RT
[9] = column head prints F4, double mutant Asn103/Ile108RT, read-out: EC50 Asn103/Ile108RT F4

For `CCOC(=O)c1c(OC2CC(C)CC(C)C2)c(CC)c(C)[nH]c1=O` (single isomer, unassigned) [Z37inv], the EC50 ([1]; TZM-bl, mutant Ile108RT) was 1090 nM.
For `O=C1Nc2ccc(Cl)cc2[C@@](C#CC2CC2)(C(F)(F)F)O1` [Efavirenz, reference compound], the EC50 [1, 5] was less than 6 nM, the EC50 [2, 6] was 1190 nM and the EC50 ([3]; Human immunodeficiency virus 1) was less than 1 nM. It also gave an EC50 [4, 7] of 9 nM.
`Cc1ccnc2c1NC(=O)c1cccnc1N2C1CC1` [Nevirapine, reference compound] was tested, and the EC50 [1, 5] was 91 nM, the “EC50 Asn103/Ile108RT MT4” value [2, 8] was “inactive” and the EC50 ([3]; Human immunodeficiency virus 1) was 575 nM. For the same compound, the EC50 [4, 7] was 6250 nM.
`CCc1c(C)[nH]c(=O)c(CO)c1OC1CC(C)CC(C)C1` (stereo not shown) [Z45inv] gave an EC50 [4, 9] of 19200 nM.
`CCc1c(C)[nH]c(=O)c([N+](=O)[O-])c1OC1CC(C)CC(C)C1` (stereo not shown) [Z91inv, 3-nitro-5-ethyl-6-methyl-4-[(3,5-dimethylcyclohexyl)oxy]pyridine-2(1H)-one] showed an EC50 [1, 5] of less than 1 nM, an EC50 [2, 6] of 9900 nM and an EC50 ([3]; Human immunodeficiency virus 1) of less than 1 nM. The EC50 [4, 7] was 180 nM.
`CCc1c(C)[nH]c(=O)c(CSC(C)=O)c1OC1CC(C)CC(C)C1` (stereo not shown) [Z114] was tested, and the EC50 ([1]; TZM-bl, mutant Ile108RT) was 12 nM, the “EC50 Asn103/Ile108RT MT4” value [2, 8] was “inactive” and the EC50 [3] was 136 nM. For the same compound, the EC50 [4, 9] was 1930 nM.
`CCc1c(C)[nH]c(=O)c(N(C)C)c1OC1CC(C)CC(C)C1` (stereo not shown) [Z150, 3-(dimethylamino)-5-ethyl-6-methyl-4-[(3,5-dimethylcyclohexyl)oxy]pyridine-2(1H)-one] gave an EC50 [1, 5] of 4 nM, an EC50 [2, 6] of 958 nM and an EC50 ([3]; Human immunodeficiency virus 1) of less than 1 nM. For the same compound, the EC50 [4, 7] was 27 nM.
In the case of `CCc1c(C)[nH]c(=O)c(CN=[N+]=[N-])c1OC1CC(C)CC(C)C1` (stereo not shown) [Z153], the EC50 ([1]; TZM-bl, mutant Ile108RT) is reported as 1 nM, the EC50 ([2]; MT4, double mutant Asn103/Ile108RT, read-out: EC50 Asn103/Ile108RT MT4) is reported as 3480 nM and the EC50 [4, 9] is reported as 70 nM.
Work on `CCc1c(C)[nH]c(=O)c(C)c1OC1CC(C)CC(C)C1` (stereo not shown) [Z154] yielded an EC50 ([1]; TZM-bl, mutant Ile108RT) of 14 nM, an EC50 [3] of less than 1 nM and an EC50 [4, 9] of 88 nM.
